Assay [1] has as its system 293-CymR cells. Format: cell-based. Conditions: 293-CymR infected with rAd expressing VSVg.
The target in assay [2] is CymR-VP16 transactivator in 293 cells (Pseudomonas putida, UniProt O33453). Format: cell-based. The method, then: (§1) Transient transfections in 293 and HeLa cells were carried out using the calcium phosphate technique. One (1) ml of DNA-calcium phosphate precipitate contained 5 μg reporter, 250 ng activator/repressor (unless mentioned otherwise) and 3 μg seap in a total of 10 μg DNA. This was divided equally between two 60 mm plates, each containing 10^6 293 cells. One of the two plates received in addition 200 μg/ml cumate. Transient transfections in BMAD78-42 were carried out using Geneporter™ according to manufacturers directions. Briefly, 3 μg DNA (2 μg reporter, 25 ng transactivator and 0.5 μg seap) in 500 μl DMEM was added to 6×10^5 BMAd78-42 cells in DMEM. After 3 h 1 ml DMEM supplemented with 20% serum was added to the plates. Half the samples received DMEM supplemented with 20% serum and 400 μg/ml cumate.
Measurement of Seap and β-gal activity Seap activity was measured in 50 μl of cell culture medium by adding 50 μl of 2× seap buffer (1M diethanolamine PH 9.8, 2 mM MgCl2, 10 mM 1-homoarginine and 20 mM p-nitrophenyl phosphate, disodium, hexahydrate Sigma 104 phosphatase substrate) and incubating at room temperature. OD405 was read using a plate reader at different intervals. This information was used to ensure that the enzyme activity was measured under conditions where the substrate was in excess. β-galactosidase activity was measured in transfected cell extracts. Cells were lysed 48 h post-transfection by three freeze-thaw cycles in 0.25M Tris.Hcl pH8. The cell lysate was centrifuged at 14,000×g and enzyme (β-galactosidase) activity was measured in the supernatant (cell extract) using a colorimetric assay containing 1 mM MgCl2, 0.9 mg/ml ONPG, and 66 mM sodium phosphate (pH 7.5). Reactions were incubated at 37° C. until a faint yellow color had developed. OD420 was measured at regular intervals until the reaction appeared to plateau. To measure low level activity (basal activity in the absence of transactivation) a chemiluminescent substrate was used. The reaction was performed using a kit from Roche diagnostics according to the instructions of the manufacturer.
To test the system, reporter and activator constructs as described in Example I above, were co-transfected into 293 cells by the calcium-phosphate technique. A plasmid carrying the secreted alkaline phosphatase coding sequence under the control of a constitutive promoter was included in all transfections and seap activity in the cell culture medium was used to normalize for transfection efficiency.

For assay [3], the system named is 293-CuO-GFPq13# cells. Description: GFP expression from stably integrated pAdCMV5-CuO-GFPq in 293-CuO-GFPq13#. The assay is classed as cell-based. How it is done:
1×10^6 293-CymR clone 21 were transfected with 10 μg of pAdCMV5-CuO-GFPq. GFP expression was induced by the addition of 200 μg/ml cumate and individual GFP positive cells were picked by Quixell™ (Caron, A. W., et al., Methods in cell science 22: 137-145, 2000).
293-CuO-GFPq13# were cultured in the presence and absence of cumate for 48 h. Photographs were taken using an inverted fluorescence microscope (Leica, Wetzlar, Germany). […] In the OFF state (FIG. 15B) only two GFP-positive cells are visible in the microscopic field.
Total GFP fluorescence was measured in the ON (9255) and OFF (3.75) states using an EPICS-XL flow cytometer (Coulter). The ON/OFF ratio for this clone was […].

Assay [4] has as its system 293-CymR clone 21. Format: cell-based. To be noted: 200 μg/ml cumate, 48 h post-transfection.
The subject of assay [5] is 293-CymR clones. Description: Infection of 293-CymR clones with AdCMV5-Og-LacZ, β-galactosidase activity. Format: cell-based. To be noted: 200 μg/ml cumate. How it is done:
1×10^6 293 cells were transfected with 10 μg of pCymR/tk-neo by the calcium phosphate technique. 400 μg/ml G418 was added to the growth medium 48 h after transfection to select a pool of G418-resistant cells. Individual clones (293-CymR) were isolated from this pool by the method of limiting dilution.
293CymR clones were infected with AdCMV5-Og-LacZ in the presence and absence of 200 μg/ml cumate. β-galactosidase activity was measured 48 h post-infection.

Assay [6] concerns CymR-mediated expression (P2-cymlacZ fusion system). Description: Induction of expression in the P2-cymlacZ fusion system by candidate effectors. To be noted: P2-cymlacZ fusion system. Format: cell-based, Pseudomonas putida. From the text:
The need to solubilize p-cumate (p-cumic acid) in organic solvent (e.g. ethanol or dimethyl formamide) is a great disadvantage. The present invention thus provides water-soluble effectors as well as possibly expanding the spectrum of inducers beyond p-cumate. At first, cumic alcohol, 4-methyl benzylalcohol, ethyltoluene, indole-2-carboxylic acid, indole-3-carboxylic acid, benzoic acid, 3- and 4-hydroxybenzoic acids, 3,4-dihyroxybenzoic acid and 2,4-dihydrobenzoic acid were tried. […] In this P2-cymlacZ fusion system, the threshold cumate concentration for induction is in the order of 0.002 millimolar (mM).
The sodium salt of cumic acid was also tested vs cumic acid (taken as cumate).
Both sodium benzoate and sodium toluate are ineffective.

Assay [7] concerns cumate activator (rAd vectors). As to the kind of experiment: Co-infection with recombinant adenoviral reporter and activator viruses.
The target in assay [8] is CymR-VP16 transactivator in HeLa cells (Pseudomonas putida, UniProt O33453). Description: Cumate switch strategy 1: transient co-transfection, β-gal, HeLa cells. The assay is classed as cell-based. The method, then:
as §1, with “Half the samples received DMEM supplemented with 20% serum and 400 μg/ml cumate.” left out
Measurement of Seap and β-gal activity Seap activity was measured in 50 μl of cell culture medium by adding 50 μl of 2× seap buffer (1M diethanolamine PH 9.8, 2 mM MgCl2, 10 mM 1-homoarginine and 20 mM p-nitrophenyl phosphate, disodium, hexahydrate Sigma 104 phosphatase substrate) and incubating at room temperature. OD405 was read using a plate reader at different intervals. This information was used to ensure that the enzyme activity was measured under conditions where the substrate was in excess. β-galactosidase activity was measured in transfected cell extracts. […] OD420 was measured at regular intervals until the reaction appeared to plateau. […]

The subject of assay [9] is 293 CuO-GFP clone 13. Description: Testing of cumate analogues as effector molecule (FIG. 16). Format: cell-based. From the text:
Of course cumate can be substituted for various cumate analogues also referred to as effector molecule as described before.
The Deposits were received by the authority on Apr. 10, 2002, and were given accession number IDA-100402-1 and IDA-100402-2, respectively. 293 CuO-GFP clone 13 was also deposited on Apr. 10, 2002 in the same IDA and was given accession number IDA-100401-3.

Like-named read-outs stand apart in the source and are kept apart here.

Chain of CymR-VP16 transactivator in 293 cells (O33453 whole entry, added parts left off): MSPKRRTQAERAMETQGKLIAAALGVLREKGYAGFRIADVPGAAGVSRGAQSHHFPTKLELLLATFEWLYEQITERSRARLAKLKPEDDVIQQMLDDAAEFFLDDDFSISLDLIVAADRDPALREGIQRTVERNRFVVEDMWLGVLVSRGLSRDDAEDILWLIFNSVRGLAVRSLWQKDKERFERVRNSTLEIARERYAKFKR
Chain of CymR-VP16 transactivator in HeLa cells (O33453 whole entry, added parts left off): as above

As for `CC(C)c1ccc(C(=O)O)cc1` [cumate, cumic acid], in assay [1], the “induction of VSVg and syncitia formation on addition of cumate” value is reported as “induces the expression of VSVg”. Also, the “reduction of activation on addition of cumate” value in assay [2] (pAdCR5LacZ + pAdcTA1(+nls), 200 μg/ml cumate) is 78%; in assay [2] (pAdcTA1(−nls), 50 μg/ml cumate) it was 86%; in assay [2] (pAdcTA1(−nls), 100 μg/ml cumate) it was 87%; in assay [2] (pAdcTA1(−nls), 200 μg/ml cumate) it was 89%. Also, in [3] (48 h culture), the “cells positive for GFP expression in the presence of cumate” value is given as 100%. In addition, in [3] (clone 293-CuO-GFPq13#), the “ON/OFF ratio of total GFP fluorescence” value turned out to be 246. Also, the “Total GFP fluorescence, ON state” value in [3] (with cumate, flow cytometer) was 9255. The “VSVg expression on addition of cumate (western)” value in assay [4] was “clearly evident”. The “ON/OFF ratio (β-gal with vs without cumate)” value amounted to 19 in assay [5] (293-CymR clone 21, AdCMV5-Og-LacZ); 16 in [5] (293-CymR clone 22, AdCMV5-Og-LacZ); 7.6 in assay [5] (293-CymR clone 23, AdCMV5-Og-LacZ). Further, the “threshold cumate concentration for induction” value in assay [6] is approximately 0.002 mM. The “share of the increase obliterated by addition of cumate” value in assay [7] (reporter moi 10, activator moi 0.1) worked out at 95%; in [7] (reporter moi 10, activator moi 1), 98%. Further, in assay [8] (pAdcTA1(+nls)), the “decrease in activation by the transactivator on addition of cumate” value stood at 9.4 fold. Besides, the “reduction in activation on addition of cumate” value in assay [8] (pAdcTA1(−nls)) is 34 fold. In addition, in assay [9], the “activity as activator (effector molecule)” value is listed as “good activators”.

Values taken from patent US8163894B2, “DNA for eukaryotic expression of CymR” (National Research Council of Canada, priority 2001, dated 2012).
